According to PubChem BioAssay (NCI):
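Abbreviation: GI50, concentration required for 50% inhibition of growth. Definition used: TGI = concentration required for complete inhibition of growth.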

Key:
Assay in all cases: NCI-60 cell line screen, 384-well format
PC-3 prostate = tested on: PC-3 prostate
OVCAR-8 ovarian = tested on: OVCAR-8 ovarian
A549 NSCLC = tested on: A549 NSCLC
SW-620 colon = tested on: SW-620 colon
786-0 renal = tested on: 786-0 renal
MDA-MB-468 breast = tested on: MDA-MB-468 breast
SR leukemia = tested on: SR leukemia
SK-MEL-28 melanoma = tested on: SK-MEL-28 melanoma
UACC-257 melanoma = tested on: UACC-257 melanoma
NCI-H522 lung = tested on: NCI-H522 lung
K-562 leukemia = tested on: K-562 leukemia
CCRF-CEM leukemia = tested on: CCRF-CEM leukemia
HL-60(TB) leukemia = tested on: HL-60(TB) leukemia
OVCAR-4 ovarian = tested on: OVCAR-4 ovarian
NCI-H226 lung = tested on: NCI-H226 lung
IGROV1 ovarian = tested on: IGROV1 ovarian
MDA-MB-231 breast = tested on: MDA-MB-231 breast
MDA-MB-435 melanoma = tested on: MDA-MB-435 melanoma
RPMI-8226 leukemia = tested on: RPMI-8226 leukemia
KM12 colon = tested on: KM12 colon
SK-OV-3 ovarian = tested on: SK-OV-3 ovarian
A498 renal = tested on: A498 renal
SN12C renal = tested on: SN12C renal
NCI-H460 NSCLC = tested on: NCI-H460 NSCLC
CAKI-1 renal = tested on: CAKI-1 renal
T-47D breast = tested on: T-47D breast
SNB-75 CNS = tested on: SNB-75 CNS
EKVX NSCLC = tested on: EKVX NSCLC
UO-31 renal = tested on: UO-31 renal

Cc1cncc(-c2nc(NCCc3c[nH]c4ccccc34)c3ncn(C(C)C)c3n2)c1
GI50 (PC-3 prostate): 3.19 µM
TGI (PC-3 prostate): 8.62 µM
GI50 (OVCAR-8 ovarian): 4.05 µM
TGI (OVCAR-8 ovarian): 13.6 µM
GI50 (A549 NSCLC): 3.84 µM
TGI (A549 NSCLC): 14.1 µM
GI50 (SW-620 colon): 2.11 µM
TGI (SW-620 colon): 3.74 µM
GI50 ([…]-0 renal): 1.76 µM
TGI (786-0 renal): 3.65 µM
GI50 (MDA-MB-468 breast): 2.21 µM
TGI (MDA-MB-468 breast): 4.14 µM
GI50 (SR leukemia): 1.47 µM
TGI (SR leukemia): 3.02 µM
GI50 (SK-MEL-28 melanoma): 1.89 µM
TGI (SK-MEL-28 melanoma): 3.94 µM
GI50 (UACC-257 melanoma): 2.04 µM
TGI (UACC-257 melanoma): 3.54 µM
GI50 (NCI-H522 lung): 4.42 µM
TGI (NCI-H522 lung): 13.1 µM
GI50 (K-562 leukemia): 1.89 µM
TGI (K-562 leukemia): 3.47 µM
GI50 (CCRF-CEM leukemia): 2.11 µM
TGI (CCRF-CEM leukemia): 4.22 µM
GI50 (HL-60(TB) leukemia): 1.73 µM
TGI (HL-60(TB) leukemia): 3.15 µM
GI50 (OVCAR-4 ovarian): 3.37 µM
TGI (OVCAR-4 ovarian): 9.2 µM
GI50 (NCI-H226 lung): 4.34 µM
TGI (NCI-H226 lung): 11.3 µM
GI50 (IGROV1 ovarian): 4.19 µM
TGI (IGROV1 ovarian): 14.8 µM
GI50 (MDA-MB-231 breast): 4.16 µM
TGI (MDA-MB-231 breast): 12 µM
GI50 (MDA-MB-435 melanoma): 5.52 µM
TGI (MDA-MB-435 melanoma): 17.8 µM
GI50 (RPMI-8226 leukemia): 2.2 µM
TGI (RPMI-8226 leukemia): 3.78 µM
GI50 (KM12 colon): 2.07 µM
TGI (KM12 colon): 4.21 µM
GI50 (SK-OV-3 ovarian): 3.99 µM
TGI (SK-OV-3 ovarian): 12.3 µM
GI50 (A498 renal): 2.39 µM
TGI (A498 renal): 6.39 µM
GI50 (SN12C renal): 5.32 µM
TGI (SN12C renal): 17.2 µM
GI50 (NCI-H460 NSCLC): 2.26 µM
TGI (NCI-H460 NSCLC): 4.53 µM
GI50 (CAKI-1 renal): 3.96 µM
TGI (CAKI-1 renal): 12.7 µM
GI50 (T-47D breast): 3.57 µM
TGI (T-47D breast): 10.9 µM
GI50 (SNB-75 CNS): 4.46 µM
TGI (SNB-75 CNS): 16.8 µM
GI50 (EKVX NSCLC): 4.24 µM
TGI (EKVX NSCLC): 14 µM
GI50 (UO-31 renal): 4.64 µM
